# Reference: US20180305408A1, “COMPOUNDS FOR INDUCING TISSUE FORMATION AND USES THEREOF” (HISTIDE AG, priority 2015, published 2018)
# No end group written: not given here.
# Columns and labels:
# [1] = test system: Human Hematopoietic Stem Cells; experiment: Differentiation of human hematopoietic stem cells: loss of stemness marker CD-34+ (immunostaining); assay type: cell-based; details: compound in cell media solution, 400 ng/mL, 48 hours
# [2] = Stability of non-covalent coating of fluorescent peptides on apatite ceramics or type-I collagen sponge; assay type: physicochemical; details: FITC-bound peptide on apatite ceramics or type-I collagen sponge; after 3, 7 or 10 days
# Description: Non-covalent modifications of the materials were performed in Air Atmosphere at room temperature. The non-covalent coating strategy consisted in using a mixture of compound of the invention (SEQ ID NO: 9; concentration of 1×10^−3M) with an apatite ceramics implant or a mixture of compound of the invention (SEQ ID NO: 10; concentration of 1×10^−3M) with a type-I collagen sponge. The non-covalently coated conventional materials were characterized by using fluorescent peptides (Here SEQ ID NO: 9 and 10 covalently bound to fluorescein isothiocyanate (FITC), FIG. 3). The results shown here in FIG. 3 were obtained from experiments performed with apatite ceramics and a type-I collagen sponge. […] Indeed, after 3, 7 or 10 days, the osteogenic peptides were still coupled to the ceramics or the type-I collagen (FIG. 4). The biomaterial surface was characterized by X-ray photoelectron spectroscopy (Table 1). The X-ray photoelectron spectroscopy was performed as described in the Methods section.
# osteoblast progenitors = experiment: Osteogenic differentiation of osteoblast progenitors on coated materials (Osteopontin staining, Runx2 Q-PCR); assay type: cell-based; details: 48 hours on coated apatite ceramics or type-I collagen sponge vs native materials
# Description: The cells were first fixed for 20 min with 4% paraformaldehyde/PBS at 4° C. After fixation, the cells were permeabilized in PBS containing 1% Triton X-100 for 15 min. Runx2, Osterix, Stro-1, Vinculin, Phalloidin, Osteopontin, Sox2, Sox9 antibodies were visualized by treating the cells with 1% (v/v) specific monoclonal antibodies for 1 hour at 37° C. Then the samples were incubated with Alexa Fluor® 568 or 647 (F(ab′)2 fragment of IgG(H+L)) during 30 min at room temperature. The cell nuclei were counterstained in 20 ng/mL DAPI for 10 min at room temperature.
# Total RNA was extracted by using the RNeasy total RNA kit (Qiagen®) according to the manufacturer's instructions. Purified total RNA was used as a template in order to make cDNA by a reverse transcription reaction (Gibco Brl®) with random primers (Invitrogen®). […] Data were analyzed with the iCycler IQ™® software and compared by the ΔΔCt method. […]
# The effect of the GFR-binding compounds as defined herein (SEQ ID NO: 19 and 20) on the differentiation of osteoblast progenitors was evaluated. […]
# Finally, it was verified that the osteoblast progenitors were differentiated into mature osteoblasts by analyzing the expression of the osteogenic biomarker Runx2. An increase in the Runx2 gene expression after 24 hours of culture (FIG. 8a) was observed by using Quantitative Real Time Polymerase Chain Reaction as described in the Methods section.
# hMSCs [3] = experiment: ALP activity of hMSCs on type-I collagen sponge coupled with compound; assay type: cell-based, Human; details: after 1 week of culture on type-I collagen sponge
# Text: Finally, it was verified that the hMSCs were differentiated into mature osteoblasts by analyzing the activity of the osteogenic biomarker ALP (Alkaline Phosphatase Activity). We observed an increase in the ALP activity after 1 week of culture on type-I collagen sponge coupled with GFR-binding compounds as defined herein (SEQ ID NO: 19) (FIG. 8b).
# hMSCs [4] = experiment: Cartilage regeneration: chondrocyte differentiation of hMSCs (Sox9, Aggrecan); assay type: cell-based, Human; details: after 96 hours of culture
# Description: Total RNA was extracted by using the RNeasy total RNA kit (Qiagen®) according to the manufacturer's instructions. Purified total RNA was used as a template in order to make cDNA by a reverse transcription reaction (Gibco Brl®) with random primers (Invitrogen®). The cDNA was then used as a template for a real-time PCR amplification in the presence of SYBR green reagents (Bio-Rad®) by using a thermocycler (iCycler, Biorad®). Data were analyzed with the iCycler IQ™® software and compared by the ΔΔCt method. […]
# Total RNA was extracted by using the RNeasy Mini Kit (Qiagen) and […] RNA was used for cDNA synthesis with AMV kit (Invitrogen®) according to the manufacturer′ instructions. Semi-quantitative reverse transcriptase-polymerase chain reaction (RT-PCR) was performed with Taq DNA Polymerase (Invitrogen®) in a thermocycler (Bio-Rad®). […] The PCR products were analyzed on 2% agarose gels. For the Aggrecan gene, the PCR bands were densitometrically quantified by using the BioCapt software (Vilber). […]
# It was then verified that these hMSCs cultured with and without GFR-binding compounds as defined herein were differentiated into chondrocyte cells by analyzing the expression of the chondrocyte gene biomarker: Aggrecan. […] For that a semi-quantitative RT-PCR was performed as described in the Methods section for the Aggrecan gene and a Quantitative Real Time PCR for Sox9.
# Hair Follicle Stem Cells = experiment: Activation of hair follicle stem cells (Sox2 expression, BMP-6 release); assay type: cell-based, Mouse
# Text: The following starting materials and reagents were used: • Apatite ceramics (also called apatite or ceramic in the present invention) were synthetized as described in Mater Res. 2004; 7(4): 625-630. • Titanium was obtained from Goodfellow®. • Hydrogel (poly(acrylamide-co-acrylic acid) gel) was synthetized as described in Langmuir 2011; 27(22):13635-42. • PEEK was obtained from Goodfellow®. • PET (Poly(ethylene terephthtalate) was obtained from Goodfellow@. • Type-I collagen sponge was obtained from Sigma®. • Hexane was obtained from Sigma®. • 3-succinimidyl-3-maleimidopropionate (SMP) was obtained from Sigma®. • DMF was obtained from Sigma®. • PBS 1× was obtained from Gibco®. • 3-(ethoxydimethylsilyl)propylamine was obtained from Sigma®. • Ammonium persulfate was obtained from Biorad®. • N,N,N′,N′-tetramethylethylenediamine was obtained from Aldrich®. • Acrylamid was obtained from Merck®. • Acrylic acid was obtained from Merck®. • N,N-methylene-bis-acrylamide was obtained from Merck®. • NaOH was obtained from Aldrich®. • N,N,N′,N′-tetramethylethylenediamine was obtained from Aldrich®. • Dimethylaminopropyl-3-ethylcarbodiimide hydrochloride was obtained from Aldrich®. • N-hydroxysuccinimide was obtained from Aldrich®. • 2-(N-morpholino)-ethane sulfonic acid was obtained from Aldrich®. • MilliQ water: is water characterised in terms of resistivity (typically 18.2 MΩ·cm at 25° C.). • Low glucose Dulbecco's Modified Eagle Medium (DMEM) was obtained from Invitrogen® • Minimum Essential Medium Eagle without ascorbic acid (αMEM) was obtained from Invitrogen®. • All of the cell culture experiments were carried out without any serum in the medium for the first 8 hours of culture. • Osteoblast progenitors or precursor osteoblasts: MC3T3-E1 cells were obtained from ATCC®. These cells were cultured in Alpha-MEM medium supplemented with 10% fetal calf serum (FCS) and 1% penicillin/streptomycin. All cells were used at a low passage number (passage 7), were subconfluently cultured and were seeded at 10^4 cells/cm^2 for the purpose of the experiments. • Human bone marrow Mesenchymal Stem Cells (hMSCs) were obtained from Lonza®. These cells were cultured in Alpha-MEM supplemented with 10% (v/v) FBS and 1% penicillin/streptomycin and incubated in a humidified atmosphere containing 5% (v/v) CO2 at 37° C. All cells were used at a low passage number (passage 2 to 4), were subconfluently cultured and were seeded at 10^4 cells/cm^2 for the purpose of the experiments. • Human adipose Mesenchymal Stem Cells (haMSCs) were obtained from Lonza®. These cells were cultured in Alpha-MEM supplemented with 10% (v/v) FBS and 1% penicillin/streptomycin and incubated in a humidified atmosphere containing 5% (v/v) CO2 at 37° C. […]
# Neurons = experiment: Neuron growth (dendrite growth, GAP43 Q-PCR); assay type: cell-based
# Text: […]
substance,measurement,setting,value
"PTSSAPTDLRSVKMAKVEIVRKKPIFKEVQVDMVVKASGDKGVVTY (also: cyclic, ring type not given here) [SEQ ID NO: 742]",CD34+ Expression (%),[1],33%
"SEQ ID NO: 9: compound of the invention non-covalently coated on apatite ceramics; tested bound to FITC; sequence not in this part (WWFWGSAISTLYLIGKTPKILKNYQ; also: FITC label, site not given here, cyclic, ring not given here)",release of peptides from the coated material over time,[2],no significant release
"SEQ ID NO: 10: compound of the invention non-covalently coated on type-I collagen sponge; tested bound to FITC; sequence not in this part (GTPGPSAISTLYLIGKTPKILKNYQ; also: cyclic, ring type not given here, bound to FITC, place not given here)",release of peptides from the coated material over time,[2],no significant release
"SEQ ID NO: 19: GFR-binding compound, osteogenic, coated on apatite ceramics or collagen sponge; sequence not in this part (WWFWGSAISTLYLDEYDKVVLKNYQ; also: cyclic, ring type not given here)",production of extracellular matrix proteins such as Osteopontin (OPN),osteoblast progenitors,extensive amounts
same,ALP activity,hMSCs [3],increase
"SEQ ID NO: 20: GFR-binding compound, osteogenic, coated on apatite ceramics or collagen sponge; sequence not in this part (GTPGPSAISTLYLGGGGLKNYQ; also: cyclic, ring type not given here)",production of extracellular matrix proteins such as Osteopontin (OPN),osteoblast progenitors,extensive amounts
"SEQ ID NO: 23: GFR-binding compound inducing cartilage regeneration; sequence not in this part (ELEPLPIVYYVGRKPKVEQLSNGG; also: cyclic, ring type not given here)",expression of the Sox9 protein,hMSCs [4],expression of the Sox9 protein was observed
"SEQ ID NO: 24: GFR-binding compound inducing cartilage regeneration; sequence not in this part (EPLPIVYYVGRTPKVEQLSNGG; also: cyclic, ring type not given here)",expression of the Sox9 protein,hMSCs [4],expression of the Sox9 protein was observed
"SEQ ID NO: 29: GFR-binding compound tested on hair follicle stem cells; sequence not in this part (DENKNSSLSILFFDENKNVVLKVYP; also: cyclic, ring type not given here)",BMP-6 release in the cell culture medium,Hair Follicle Stem Cells,decrease
same,Sox2 protein expression,Hair Follicle Stem Cells,increase
"SEQ ID NO: 30: GFR-binding compound tested on hair follicle stem cells; sequence not in this part (DENEKSSLSILFFDENEKVVLKVYP; also: cyclic, ring type not given here)",BMP-6 release in the cell culture medium,Hair Follicle Stem Cells,decrease
same,Sox2 protein expression,Hair Follicle Stem Cells,increase
"SEQ ID NO: 38: neurogenic peptide; sequence not in this part (SPISILYIDAANNVVYKQYEDAAN; also: cyclic, ring type not given here)",establishment of cell-cell contacts via dendrite growth,Neurons; after 6 hours of culture,rapid establishment of cell-cell contacts
same,GAP43 gene expression,"Neurons; after 48 hours of culture, Q-PCR",high level of expression
"VPTAAEPLTMLYYEIVRKKPIFEQLSNMVEHSDDMGVPT (also: cyclic, ring not given here) [SEQ ID NO: 744]",CD34+ Expression (%),[1],38%
"VSQAARPVQTRKIDDMGVPTKKATVAAVKSDDMGVPT (also: cyclic, ring not given here) [SEQ ID NO: 741]",CD34+ Expression (%),[1],26%
